Test: gradient 5% acetonitrile 3 min, to 50% in 2 min, to 85% in 15 min, held 3 min, 100 µL/min
Conditions: column: Zorbax Extend-C18 2.1 x 50 mm; eluents: water / acetonitrile, 0.1% formic acid
In short: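 Pure standards were analyzed in mixtures of ~100 molecules using HPLC coupled to a quadrupole time-of-flight mass spectrometer, in both positive and negative ionization mode. Separation used a Zorbax Extend-C18 column (2.1 × 50 mm, 1.8 μm) at 100 μL/min, with water and acetonitrile each containing 0.1% formic acid. Dead and dwell volumes were 40 μL and 900 μL, and data were collected over 3 months. Retention time was read from computationally picked adduct peaks, each inspected manually.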

Row | Structure (SMILES) | RP-LC retention time [s]
1 | Cc1csc(-c2cc(S(=O)(=O)NC(C)C)cn2CC(=O)N2CCCC2)n1 | 769
2 | CN1CC(c2nc(C3CC3)no2)C2(CCN(C(=O)c3ccc4c(c3)OCO4)CC2)C1 (centres undefined) | 609
3 | CCOC(=O)c1cc(S(=O)(=O)N2CCCC2C(=O)Nc2ccc(C)cc2C)cn1C (centres undefined) | 957
4 | CC(=O)N1CCc2cc(-c3ccc(C(=O)N4CCN(c5ccccn5)CC4)cc3)ccc21 | 611
5 | COc1ccc(-n2nc3c(N4CCCC(C(=O)NC5CCCC5)C4)nnc(C)c3c2C)cc1 (centres undefined) | 696
6 | CCCCNC(=O)Cn1c(=O)c2cccn2c2ccc(F)cc21 | 773
7 | CCN1C(=O)C2(CCN(S(=O)(=O)c3ccc(C(C)C)cc3)CC2)c2ccccc21 | 1210
8 | CN(C)c1ccc2c(c1)CN(C(=O)c1cc(C3CC3)[nH]n1)CCO2 | 588
9 | O=C(C1CCCC1)N1CC(c2nc(-c3ccc(F)cc3)no2)C2(CCOCC2)C1 (centres undefined) | 958
10 | CC(C)CN1CCN(C(=O)CN2CCN(Cc3ccc(F)cc3)C2=O)CC1 | 602
11 | Cc1cccc(CN2CC=C(C(=O)N3CCN(c4cccc(C)c4)CC3)CC2)c1 | 706
12 | O=C(c1ccc(F)c(F)c1)N1CCCC1c1nc(-c2ccccc2)no1 (centres undefined) | 653
13 | Cc1ccc(NC(=O)N2CCCC2c2c(C)noc2C)c(Cl)c1 (centres undefined) | 872
14 | COc1ccc(NS(=O)(=O)c2cc3n(c2)CCCNC3=O)c(C)c1 | 640
15 | CSc1nc(=O)[nH]nc1Sc1ccccc1 | 800
16 | COc1ccc2nc3cc(Cl)ccc3c(C#N)c2c1 | 1260
17 | COc1ccc(S(=O)(=O)N2CCN(c3cc(-n4ccnc4)nc(C)n3)CC2)cc1Cl | 664
18 | NC(=O)CNC(=O)c1sc2ncccc2c1-n1cccc1 | 622
19 | Cc1nc(-c2csc(S(=O)(=O)N3CCCC(C(=O)Nc4cccc5c4CCCC5)C3)c2)no1 (centres undefined) | 1110
20 | CC1(C(=O)NC2CCCC2)Cn2c(ccc2-c2ccco2)C(=O)N1Cc1cccnc1 (centres undefined) | 657
21 | COc1ccccc1C(=O)N1CCC(c2cc3n(n2)CCCNC3=O)CC1 | 596
22 | CCOC(=O)CCC(=O)N1CC(c2nc(C)no2)C1 | 603

Results, then the molecule that gave them:

Row | RP-LC retention time [s] | Structure (SMILES)
23 | 916 | CCOc1ccc(NS(=O)(=O)c2cc(C(=O)Nc3cccc(Cl)c3)n[nH]2)cc1
24 | 929 | Cc1nc2cc(-c3noc(-c4ccc(C#N)cc4)n3)ccc2n(C(C)C)c1=O
25 | 1170 | COC(=O)c1ccccc1NC(=O)CSc1cc(N2CCN(c3ccccc3F)CC2)ncn1
26 | 1170 | CCc1nnc(-c2ccc3ccn(CC(=O)NCCc4sccc4C)c3c2)o1
27 | 778 | COc1cc(NC(=O)Cc2c(C(=O)O)c(C)cn2C)cc(OC)c1
28 | 873 | Cc1ccc(-c2cn3ccn(-c4cccc(F)c4)c(=O)c3n2)cc1C
29 | 830 | O=C(CSc1ncnc2c1nnn2Cc1ccccc1)Nc1ccc2c(c1)OCCO2
30 | 824 | COc1ccc(S(=O)(=O)NCc2ccc3c(c2)CCN3C(=O)c2ccccc2)cc1OC
31 | 849 | COc1ccc(-n2c(=O)n(C)c(=O)c3cc(C(=O)Nc4ccccc4C)cnc32)cc1
32 | 736 | CCOC(=O)c1cnc2nc(C)ccc2c1Nc1cc(F)cc(F)c1
33 | 919 | CCS(=O)(=O)N1CC(=O)N(c2cc(Cl)ccc2C)C(C)(C(=O)NCc2ccccc2)C1 (centres undefined)
34 | 962 | CCN1C(=O)COc2ccc(-c3nc(NC(=O)CC(C)C)sc3C)cc21
35 | 992 | Cc1cccc(Nc2nc(-c3ccc(F)c(C)c3)cs2)n1
36 | 692 | CCc1nnc(-c2ccc(=O)n(CC(=O)Nc3ccc(C)cc3F)c2)o1
37 | 1070 | Fc1ccc(-c2noc(Cc3nnc(-c4ccc(Cl)cc4)o3)n2)cc1
38 | 604 | COc1ccc(OC)c(S(=O)(=O)N2CCCC(C(=O)NCc3ccncc3)C2)c1 (centres undefined)
39 | 921 | Cc1cc(-c2nnc(-c3ccccc3)o2)c(C)n1CC(=O)NC(C)c1ccccc1 (centres undefined)
40 | 650 | O=C(NC1CCN(c2cc(-c3ccccc3)[nH]n2)C1)c1ccoc1 (centres undefined)
41 | 958 | COc1ccc(S(=O)(=O)N2CCCC(C(=O)Nc3ccc4c(c3)OCCO4)C2)cc1C (centres undefined)
42 | 1270 | COc1ccccc1N1CCN(c2nc3c(c(Nc4ccccc4)n2)C(=O)CCC3)CC1
43 | 923 | COc1ccc(-c2noc(-c3ccc(N4CCN(c5ncccn5)CC4)nn3)n2)cc1
44 | 888 | COc1cccc(OC)c1C(=O)Nc1nnc(SCc2nnc(-c3ccccc3C)o2)s1

— the METLIN SMRT retention time set (Domingo-Almenara et al. 2019)
